Experimental data: ChEMBL document CHEMBL1201862, “PubChem BioAssay data set” (2004)
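How tested: cells in 96-well plates exposed to compound for 48 hours at five concentrations. Abbreviation: GI50, concentration required for 50% inhibition of growth.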 Active and inactive are the calls of the source. No stated cut-off is given here; in the data, active = GI50 up to about 1.1 µM and inactive = higher.

Assays:
Assay in all cases: inhibition of tumour cell growth, NCI panel, 48 h
786-0 = system: 786-0
A549 = system: A549
HCC 2998 = system: HCC 2998
HL-60 = system: HL-60
K562 = system: K562
LOX IMVI = system: LOX IMVI
M14 = system: M14
Malme-3M = system: Malme-3M
NCI-H460 = system: NCI-H460
NCI-H522 = system: NCI-H522
OVCAR-3 = system: OVCAR-3
RPMI-8226 = system: RPMI-8226
SK-MEL-28 = system: SK-MEL-28
SK-MEL-2 = system: SK-MEL-2
T47D = system: T47D
UACC-257 = system: UACC-257
UO-31 = system: UO-31
HOP-62 = system: HOP-62
SF-295 = system: SF-295
HOP-92 = system: HOP-92

Measured: GI50

CSC1=C(C(=O)Nc2ccc(Cl)cc2)C(N)=NC1=O
inactive: 786-0 > 100 µM | A549 > 100 µM | HCC 2998 > 100 µM | HL-60 > 100 µM | K562 > 100 µM | LOX IMVI > 100 µM | M14 > 100 µM | Malme-3M > 100 µM | NCI-H460 > 100 µM | NCI-H522 > 100 µM | OVCAR-3 > 100 µM | RPMI-8226 > 100 µM | SK-MEL-28 > 100 µM | SK-MEL-2 > 100 µM | T47D > 100 µM | UACC-257 > 100 µM | UO-31 45.1 µM

OC1(c2ccccc2)C2CCN(CC2)C1CN1CCOCC1 (configuration not stated)
inactive: 786-0 > 100 µM | A549 > 100 µM | HCC 2998 > 100 µM | HL-60 > 100 µM | HOP-62 > 100 µM | K562 > 100 µM | LOX IMVI > 100 µM | M14 > 100 µM | Malme-3M > 100 µM | NCI-H460 > 100 µM | NCI-H522 > 100 µM | OVCAR-3 > 100 µM | RPMI-8226 > 100 µM | SF-295 > 100 µM | SK-MEL-28 > 100 µM | SK-MEL-2 > 100 µM | T47D > 100 µM | UACC-257 > 100 µM | UO-31 > 100 µM

CCCCCCCCCC/C=C/CC(=O)SCCNC(=O)CCNC(=O)[C@@H](O)C(C)(C)COP(=O)(O)OP(=O)(O)OCC1OC(n2cnc3c(N)ncnc32)C(O)C1OP(=O)(O)O (some centres not stated)
inactive: 786-0 > 10 µM | A549 > 10 µM | HCC 2998 > 10 µM | HL-60 > 10 µM | HOP-62 > 10 µM | HOP-92 > 10 µM | K562 > 10 µM | LOX IMVI > 10 µM | M14 > 10 µM | Malme-3M > 10 µM | NCI-H460 > 10 µM | OVCAR-3 > 10 µM | RPMI-8226 > 10 µM | SF-295 > 10 µM | SK-MEL-28 > 10 µM | T47D > 10 µM | UACC-257 > 10 µM

CC(=O)OCc1cc(OC(C)=O)c2cc3c(OC(C)=O)cccc3c(OC(C)=O)c2c1
inactive: 786-0 13 µM | A549 12.5 µM | HCC 2998 14.5 µM | HL-60 9.51 µM | HOP-62 16.9 µM | HOP-92 20.4 µM | K562 19.2 µM | M14 12.5 µM | Malme-3M 1.64 µM | NCI-H460 5.65 µM | OVCAR-3 13.7 µM | RPMI-8226 11.2 µM | SF-295 13.6 µM | SK-MEL-28 23 µM | T47D 21.7 µM | UACC-257 22 µM | UO-31 17 µM

N#Cc1c(-c2ccccc2)c(/C=N/c2ccc(Cl)cc2)c(=O)n2c1[nH]c1ccccc12
inactive: 786-0 > 100 µM | A549 83.9 µM | HCC 2998 > 100 µM | HOP-62 73.5 µM | LOX IMVI > 100 µM | M14 > 100 µM | Malme-3M > 100 µM | NCI-H460 > 100 µM | NCI-H522 61.2 µM | OVCAR-3 80.9 µM | RPMI-8226 4.43 µM | SF-295 50.5 µM | SK-MEL-28 > 100 µM | SK-MEL-2 > 100 µM | T47D > 100 µM | UACC-257 > 100 µM | UO-31 34.4 µM

CCCCOC(=O)NC(Nc1ccc(S(=O)(=O)Nc2ccc(OC)nn2)cc1)(C(F)(F)F)C(F)(F)F
inactive: 786-0 > 100 µM | A549 > 100 µM | HCC 2998 > 100 µM | HL-60 > 100 µM | HOP-62 > 100 µM | HOP-92 78.2 µM | K562 > 100 µM | LOX IMVI > 100 µM | M14 > 100 µM | Malme-3M > 100 µM | NCI-H460 > 100 µM | OVCAR-3 > 100 µM | RPMI-8226 > 100 µM | SF-295 > 100 µM | SK-MEL-28 > 100 µM | T47D > 100 µM | UACC-257 > 100 µM | UO-31 > 100 µM

c1ccc2nn(C3CCCO3)nc2c1 (configuration not stated)
inactive: 786-0 > 100 µM | A549 > 100 µM | HCC 2998 > 100 µM | HL-60 > 100 µM | HOP-62 > 100 µM | K562 > 100 µM | M14 > 100 µM | Malme-3M > 100 µM | NCI-H460 > 100 µM | NCI-H522 > 100 µM | OVCAR-3 > 100 µM | SF-295 > 100 µM | SK-MEL-2 > 100 µM | T47D > 100 µM | UACC-257 > 100 µM

CN1c2ccccc2C(=O)NC12CCN(CC1COc3ccccc3O1)CC2 (configuration not stated)
inactive: 786-0 69.7 µM | A549 50.6 µM | HCC 2998 > 100 µM | HL-60 25.4 µM | HOP-62 49.8 µM | HOP-92 14 µM | K562 31.3 µM | LOX IMVI 45.1 µM | M14 27.8 µM | Malme-3M 33 µM | NCI-H460 21.3 µM | RPMI-8226 30.5 µM | SF-295 57.7 µM | SK-MEL-28 55.3 µM | T47D 21.2 µM | UACC-257 22 µM | UO-31 16.9 µM
